Source: ChEMBL document CHEMBL5715945 (Cancer Biol Ther, 2010)
Activity calls are given as the source filed them. No cut-off for these calls is given here.

Assays:
MDA-MB-231 = experiment: Upregulation of FAK level in human MDA-MB-231 cells harbouring mCherry red fluorescent protein at 0.1 to 1 uM incubated for 1 hr by immunoblotting analysis; type: functional, cell-based; settings: dose 0.1-1 µM
[1] = target: Epidermal growth factor receptor (Homo sapiens) (UniProt P00533); experiment: Inhibition of EGFR (unknown origin) at 0.1 uM relative to control; values are per cent of control
4T1 [2] = experiment: Effect on p130Cas phosphorylation at Tyr249 residue in mouse 4T1 cells harbouring mCherry red fluorescent protein at 0.1 to 1 uM incubated for 1 hr by immunoblotting analysis; type: functional, cell-based; settings: dose 0.1-1 µM
[3] = target: Platelet-derived growth factor receptor beta (Homo sapiens) (UniProt P09619); experiment: Inhibition of PDGFRb (unknown origin) at 1 uM relative to control; values are per cent of control
[4] = target: cAMP-dependent protein kinase (PKA) (Homo sapiens) (UniProt P22694+P17612+P22612); experiment: Inhibition of PKA (unknown origin) at 0.1 uM relative to control; values are per cent of control
[5] = target: Vascular endothelial growth factor receptor 2 (Homo sapiens) (UniProt P35968); experiment: Inhibition of KDR (unknown origin) at 1 uM relative to control; values are per cent of control
[6] = target: Activated CDC42 kinase 1 (Homo sapiens) (UniProt Q07912); experiment: Inhibition of ACK1 (unknown origin) at 0.1 uM relative to control; values are per cent of control
[7] = target: Casein kinase I isoform gamma-1 (Homo sapiens) (UniProt Q9HCP0); experiment: Inhibition of CK1g1 (unknown origin) at 1 uM relative to control; values are per cent of control
[8] = target: Proto-oncogene tyrosine-protein kinase Src (Homo sapiens) (UniProt P12931); experiment: Inhibition of c-SRC (unknown origin) at 1 uM relative to control; values are per cent of control
4T1 [9] = experiment: Induction of apoptosis in mouse 4T1 suspended cells assessed as increase in cleaved caspase 3 expression at 0.4 uM incubated for 24 hrs by immunoblotting analysis; type: functional, cell-based
[10] = target: Tyrosine-protein kinase Fyn (Homo sapiens) (UniProt P06241); experiment: Inhibition of Fyn (unknown origin) at 0.1 uM relative to control; values are per cent of control
4T1 [11] = experiment: Effect on p130Cas phosphorylation in mouse 4T1 cultured as […] at 0.1 to 1 uM incubated for 24 hrs by immunoblotting analysis; type: functional, cell-based; settings: dose 0.1-1 µM
[12] = target: Tyrosine-protein kinase ZAP-70 (Homo sapiens) (UniProt P43403); experiment: Inhibition of ZAP-70 (unknown origin) at 0.1 uM relative to control; values are per cent of control
4T1 [13] = experiment: Induction of apoptosis in mouse 4T1 adherent cells upto 0.1 uM incubated for 24 hrs by annexin V staining based flow cytometry analysis; type: functional, cell-based
[14] = Metabolic stability in human liver microsomes assessed as half life; type: ADME, Microsome
4T1 [15] = experiment: Inhibition of cell migration in mouse 4T1 cells incubated for 4 hrs by millicell-motility assay; type: functional, cell-based; settings: dose 0.1-1 µM
[16] = target: Focal adhesion kinase 1 (Mus musculus) (UniProt P34152); experiment: Inhibition of FAK phosphorylation at Tyr397 residue in mouse ID8 cells harbouring mCherry red fluorescent protein at 0.1 to 1 uM incubated for 1 hr by immunoblotting analysis; type: cell-based; settings: dose 0.1-1 µM
[17] = target: Focal adhesion kinase 1 (Mus musculus) (UniProt P34152); experiment: Inhibition of FAK phosphorylation at Y397 residue in mouse 4T1 suspended cells at 0.1 uM incubated for 24 hrs by immunoblotting analysis; type: cell-based
ID8 [18] = experiment: Antitumor activity against mouse ID8 suspended cells assessed as reduction in cell viability at 0.1 to 1 uM measured after 15 days by trypan blue staining based analysis; type: functional; settings: dose 0.1-1 µM, time 15.0 day
ID8 [19] = experiment: Upregulation of FAK level in mouse ID8 cells harbouring mCherry red fluorescent protein at 0.1 to 1 uM incubated for 1 hr by immunoblotting analysis; type: functional, cell-based; settings: dose 0.1-1 µM
4T1 [20] = experiment: Inhibition of cell migration in mouse 4T1 cells assessed as maximal efficacy at 0.4 uM incubated for 4 hrs by millicell-motility assay; type: functional
4T1 [21] = experiment: Induction of apoptosis in mouse 4T1 adherent cells at 1 uM incubated for 72 hrs by PI staining based flow cytometry analysis; type: functional, cell-based
4T1 [22] = experiment: Induction of cell cycle arrest in mouse 4T1 adherent cells assessed as accumulation at G0/G1 phase at 1 uM measured after 72 hrs by PI staining based flow cytometry analysis (reference value: 76.8%); type: functional
[23] = Toxicity in C57BL6 mouse implanted with mouse ID8 cells assessed as adverse effects at 0.5 mg/ml administered as solution in 5% sucrose measured after 30 days; type: cell-based; settings: id8, 720 h, time 30 day
4T1 [24] = experiment: Inhibition of colony formation in mouse 4T1 cells assessed as reduction in cell number measured after 10 days by phase contrast microscopy analysis; type: functional, cell-based; settings: dose 0.4-1 µM, time 10.0 day
[25] = target: Insulin receptor (Homo sapiens) (UniProt P06213); experiment: Inhibition of IR (unknown origin) at 1 uM relative to control; values are per cent of control
4T1 [26] = experiment: Induction of apoptosis in mouse 4T1 cells assessed as increase in cell shrinkage at 0.4 to 1 uM measured after 2 days by phase contrast microscopy analysis; type: functional, cell-based; settings: dose 0.4-1 µM, time 2.0 day
4T1 [27] = experiment: Inhibition of cell migration in mouse 4T1 cells at 1 uM incubated for 22 hrs by wound healing assay; type: functional, cell-based
4T1 [28] = experiment: Induction of apoptosis in mouse 4T1 suspended cells at 0.1 uM incubated for 72 hrs by PI staining based flow cytometry analysis; type: functional, cell-based
[29] = target: Tyrosine-protein kinase Lck (Homo sapiens) (UniProt P06239); experiment: Inhibition of Lck (unknown origin) at 1 uM relative to control; values are per cent of control
[30] = target: Focal adhesion kinase 1 (Mus musculus) (UniProt P34152); experiment: Inhibition of FAK phosphorylation at Y397 residue in mouse 4T1 adherent cells cultured as 3D spheroids at 0.1 to 1 uM incubated for 24 hrs by immunoblotting analysis; type: cell-based; settings: dose 0.1-1 µM
4T1 [31] = experiment: Induction of apoptosis in mouse 4T1 suspended cells at 0.1 to 0.4 uM incubated for 24 hrs by annexin V staining based flow cytometry analysis; type: functional; settings: dose 0.1-0.4 µM
[32] = target: Epidermal growth factor receptor (Homo sapiens) (UniProt P00533); experiment: Inhibition of EGFR (unknown origin) at 1 uM relative to control; values are per cent of control
[33] = target: Protein kinase C alpha type (Homo sapiens) (UniProt P17252); experiment: Inhibition of PKCa (unknown origin) at 1 uM relative to control; values are per cent of control
[34] = target: Focal adhesion kinase 1 (Mus musculus) (UniProt P34152); experiment: Inhibition of FAK phosphorylation at Y397 residue in mouse 4T1 adherent cells at 0.1 uM incubated for 24 hrs by immunoblotting analysis; type: cell-based

Focal adhesion kinase 1 (Mus musculus), sequence (P34152 whole entry): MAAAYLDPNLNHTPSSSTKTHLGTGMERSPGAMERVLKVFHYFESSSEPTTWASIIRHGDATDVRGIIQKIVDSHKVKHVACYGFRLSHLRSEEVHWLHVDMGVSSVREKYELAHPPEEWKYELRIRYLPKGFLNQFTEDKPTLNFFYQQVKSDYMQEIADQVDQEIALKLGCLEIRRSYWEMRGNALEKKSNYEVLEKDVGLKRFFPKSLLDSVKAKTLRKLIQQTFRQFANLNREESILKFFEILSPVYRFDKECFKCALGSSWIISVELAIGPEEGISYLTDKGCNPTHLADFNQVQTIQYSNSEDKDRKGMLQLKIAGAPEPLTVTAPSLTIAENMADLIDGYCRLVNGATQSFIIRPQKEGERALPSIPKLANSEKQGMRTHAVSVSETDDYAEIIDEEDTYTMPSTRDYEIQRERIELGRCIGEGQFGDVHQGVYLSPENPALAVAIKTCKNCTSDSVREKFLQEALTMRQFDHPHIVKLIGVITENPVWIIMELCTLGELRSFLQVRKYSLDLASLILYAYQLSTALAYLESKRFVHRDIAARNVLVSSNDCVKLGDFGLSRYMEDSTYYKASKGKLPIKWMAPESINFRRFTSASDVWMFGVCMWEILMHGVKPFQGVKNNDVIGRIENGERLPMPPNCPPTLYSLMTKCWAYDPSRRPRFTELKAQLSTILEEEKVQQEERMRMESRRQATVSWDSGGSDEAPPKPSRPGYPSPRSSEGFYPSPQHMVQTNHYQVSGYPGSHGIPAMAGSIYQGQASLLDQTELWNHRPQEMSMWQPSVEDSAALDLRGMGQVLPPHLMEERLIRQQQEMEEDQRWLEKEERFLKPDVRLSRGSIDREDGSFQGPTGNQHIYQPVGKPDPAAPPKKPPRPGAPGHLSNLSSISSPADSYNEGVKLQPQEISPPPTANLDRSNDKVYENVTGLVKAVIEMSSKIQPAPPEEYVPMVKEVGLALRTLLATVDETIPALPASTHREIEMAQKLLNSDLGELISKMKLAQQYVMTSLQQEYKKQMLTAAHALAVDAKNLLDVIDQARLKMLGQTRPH
Epidermal growth factor receptor (Homo sapiens), sequence (P00533 whole entry): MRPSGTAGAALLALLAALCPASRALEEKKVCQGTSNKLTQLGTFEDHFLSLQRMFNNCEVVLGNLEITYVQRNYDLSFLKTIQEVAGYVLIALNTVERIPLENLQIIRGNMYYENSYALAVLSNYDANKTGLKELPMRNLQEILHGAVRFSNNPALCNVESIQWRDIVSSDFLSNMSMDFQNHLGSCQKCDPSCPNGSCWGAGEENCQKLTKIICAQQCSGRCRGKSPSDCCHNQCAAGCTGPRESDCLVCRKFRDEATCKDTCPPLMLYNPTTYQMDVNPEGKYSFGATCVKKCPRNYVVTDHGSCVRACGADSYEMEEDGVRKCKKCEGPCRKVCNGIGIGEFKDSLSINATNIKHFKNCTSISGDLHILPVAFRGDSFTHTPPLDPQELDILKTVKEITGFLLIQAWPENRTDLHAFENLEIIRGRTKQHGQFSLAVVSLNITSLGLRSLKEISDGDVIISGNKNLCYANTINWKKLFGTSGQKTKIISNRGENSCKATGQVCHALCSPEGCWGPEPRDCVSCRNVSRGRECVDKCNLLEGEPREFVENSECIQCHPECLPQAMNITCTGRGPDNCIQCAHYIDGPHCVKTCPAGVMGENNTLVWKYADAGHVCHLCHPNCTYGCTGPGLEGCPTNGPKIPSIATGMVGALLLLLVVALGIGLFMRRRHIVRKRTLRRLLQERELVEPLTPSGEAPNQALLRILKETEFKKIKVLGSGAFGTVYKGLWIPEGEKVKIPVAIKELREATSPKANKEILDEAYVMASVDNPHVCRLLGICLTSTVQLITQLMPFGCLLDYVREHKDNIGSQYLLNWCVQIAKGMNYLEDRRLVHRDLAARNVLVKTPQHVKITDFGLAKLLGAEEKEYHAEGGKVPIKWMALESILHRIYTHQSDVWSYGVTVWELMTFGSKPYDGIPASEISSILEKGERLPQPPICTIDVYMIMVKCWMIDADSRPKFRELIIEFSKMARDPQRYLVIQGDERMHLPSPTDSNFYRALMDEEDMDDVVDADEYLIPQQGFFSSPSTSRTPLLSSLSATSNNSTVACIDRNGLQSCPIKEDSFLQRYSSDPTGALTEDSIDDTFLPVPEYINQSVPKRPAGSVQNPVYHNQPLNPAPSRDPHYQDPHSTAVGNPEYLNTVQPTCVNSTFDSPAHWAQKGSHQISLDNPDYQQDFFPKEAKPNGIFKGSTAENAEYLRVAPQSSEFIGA
Tyrosine-protein kinase ZAP-70 (Homo sapiens), sequence (P43403 whole entry): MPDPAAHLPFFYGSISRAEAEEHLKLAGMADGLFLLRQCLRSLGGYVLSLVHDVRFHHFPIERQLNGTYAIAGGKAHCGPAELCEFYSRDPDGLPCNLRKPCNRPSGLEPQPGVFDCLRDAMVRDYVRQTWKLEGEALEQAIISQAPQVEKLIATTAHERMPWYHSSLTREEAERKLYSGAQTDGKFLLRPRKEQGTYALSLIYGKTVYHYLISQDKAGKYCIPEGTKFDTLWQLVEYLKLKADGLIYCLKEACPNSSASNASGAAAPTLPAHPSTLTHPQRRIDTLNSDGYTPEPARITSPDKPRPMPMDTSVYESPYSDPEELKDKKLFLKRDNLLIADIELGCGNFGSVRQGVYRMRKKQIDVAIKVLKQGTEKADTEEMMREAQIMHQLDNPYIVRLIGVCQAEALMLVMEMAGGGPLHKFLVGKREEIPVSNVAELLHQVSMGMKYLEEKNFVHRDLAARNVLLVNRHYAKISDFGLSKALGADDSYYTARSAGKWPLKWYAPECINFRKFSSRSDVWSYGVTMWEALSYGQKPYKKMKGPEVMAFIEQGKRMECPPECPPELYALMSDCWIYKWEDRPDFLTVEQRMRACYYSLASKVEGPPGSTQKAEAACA
Activated CDC42 kinase 1 (Homo sapiens), sequence (Q07912 whole entry, looked up, canonical isoform): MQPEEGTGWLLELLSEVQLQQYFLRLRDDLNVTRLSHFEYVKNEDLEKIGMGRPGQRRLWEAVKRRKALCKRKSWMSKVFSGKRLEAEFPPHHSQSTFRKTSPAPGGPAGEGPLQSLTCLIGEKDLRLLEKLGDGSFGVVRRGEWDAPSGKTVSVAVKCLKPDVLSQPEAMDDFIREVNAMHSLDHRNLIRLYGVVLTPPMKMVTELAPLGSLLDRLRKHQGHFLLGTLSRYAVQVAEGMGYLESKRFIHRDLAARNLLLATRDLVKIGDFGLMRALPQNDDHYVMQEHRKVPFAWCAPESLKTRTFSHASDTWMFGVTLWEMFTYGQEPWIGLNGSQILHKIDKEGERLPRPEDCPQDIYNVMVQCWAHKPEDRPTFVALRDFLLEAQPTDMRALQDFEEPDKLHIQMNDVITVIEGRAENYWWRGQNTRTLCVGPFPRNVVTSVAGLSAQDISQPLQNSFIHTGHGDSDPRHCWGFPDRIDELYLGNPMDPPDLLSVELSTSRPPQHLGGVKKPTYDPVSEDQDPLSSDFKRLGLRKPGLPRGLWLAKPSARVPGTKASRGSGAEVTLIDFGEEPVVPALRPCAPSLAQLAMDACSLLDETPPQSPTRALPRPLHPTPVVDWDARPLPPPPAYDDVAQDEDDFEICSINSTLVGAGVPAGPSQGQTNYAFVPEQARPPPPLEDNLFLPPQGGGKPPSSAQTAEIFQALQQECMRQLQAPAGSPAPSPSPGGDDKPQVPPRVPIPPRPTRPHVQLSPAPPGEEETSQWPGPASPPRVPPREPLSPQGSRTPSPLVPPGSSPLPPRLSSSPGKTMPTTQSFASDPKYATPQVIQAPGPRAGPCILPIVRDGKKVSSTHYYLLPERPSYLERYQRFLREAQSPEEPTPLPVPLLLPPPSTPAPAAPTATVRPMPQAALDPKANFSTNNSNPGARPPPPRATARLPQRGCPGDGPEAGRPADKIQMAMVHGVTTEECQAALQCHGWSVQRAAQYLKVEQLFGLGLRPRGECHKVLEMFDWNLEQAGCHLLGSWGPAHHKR
Proto-oncogene tyrosine-protein kinase Src (Homo sapiens), sequence (P12931 2-536 limits assumed): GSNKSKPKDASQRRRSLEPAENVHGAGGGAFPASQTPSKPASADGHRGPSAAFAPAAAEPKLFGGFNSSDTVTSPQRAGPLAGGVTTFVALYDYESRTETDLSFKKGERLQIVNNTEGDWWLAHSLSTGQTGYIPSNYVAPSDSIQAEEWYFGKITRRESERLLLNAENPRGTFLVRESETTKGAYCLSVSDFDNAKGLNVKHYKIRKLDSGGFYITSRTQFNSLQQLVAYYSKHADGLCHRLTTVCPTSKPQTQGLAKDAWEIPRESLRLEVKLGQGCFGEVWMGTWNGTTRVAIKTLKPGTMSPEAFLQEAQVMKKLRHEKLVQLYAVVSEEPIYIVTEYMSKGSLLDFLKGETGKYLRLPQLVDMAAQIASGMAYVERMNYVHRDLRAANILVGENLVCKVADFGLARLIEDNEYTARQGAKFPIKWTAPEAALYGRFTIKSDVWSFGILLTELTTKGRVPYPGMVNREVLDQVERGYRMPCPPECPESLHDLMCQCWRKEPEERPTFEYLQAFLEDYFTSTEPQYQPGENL
Casein kinase I isoform gamma-1 (Homo sapiens), sequence (Q9HCP0 whole entry, looked up, canonical isoform): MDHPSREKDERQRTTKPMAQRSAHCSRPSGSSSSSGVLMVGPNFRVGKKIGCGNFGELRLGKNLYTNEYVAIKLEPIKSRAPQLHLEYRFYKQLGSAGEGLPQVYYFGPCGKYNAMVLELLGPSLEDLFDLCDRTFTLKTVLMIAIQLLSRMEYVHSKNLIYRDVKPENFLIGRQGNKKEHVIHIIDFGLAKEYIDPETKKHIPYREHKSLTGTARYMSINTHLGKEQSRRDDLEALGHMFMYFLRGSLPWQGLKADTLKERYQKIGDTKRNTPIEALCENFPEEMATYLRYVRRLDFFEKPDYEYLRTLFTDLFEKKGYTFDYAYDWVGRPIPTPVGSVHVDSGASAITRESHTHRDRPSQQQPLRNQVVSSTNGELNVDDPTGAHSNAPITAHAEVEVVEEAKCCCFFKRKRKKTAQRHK

- residual activity [1]: 99%
- residual activity [3]: 105%
- residual activity [4]: 114%
- residual activity [5]: 107%
- residual activity [6]: 56%
- residual activity [7]: 107%
- residual activity [8]: 72%
- residual activity [10]: 99%
- residual activity [12]: 70%
- half-life [14]: 32 min
- inhibition [16]: Active
- inhibition [17]: Active
- residual activity [25]: 40%
- residual activity [29]: 32%
- inhibition [30]: Active
- residual activity [32]: 106%
- residual activity [33]: 96%
- inhibition [34]: Active
SMILES: CNC(=O)c1ccccc1Nc1cc(Nc2ccc(N3CCOCC3)cc2OC)ncc1C(F)(F)F [VS-4718]
- Activity (MDA-MB-231): Active
- Activity (4T1 [2]): inactive
- Activity (4T1 [9]): Active
- Activity (4T1 [11]): inactive
- Activity (4T1 [13]): inactive
- inhibition (4T1 [15]): Dose-Dependent Effect
- Activity (ID8 [18]): Active
- Activity (ID8 [19]): Active
- Imax (4T1 [20]): ~60%
- Activity (4T1 [21]): Active
- Activity (4T1 [22]): 65.7%
- Activity [23]: Non-Toxic
- inhibition (4T1 [24]): Dose-Dependent Effect
- Activity (4T1 [26]): Active
- inhibition (4T1 [27]): Active
- Activity (4T1 [28]): Active
- Activity (4T1 [31]): 50%
